Test results taken from paper PMC4237514, “Novel amino-β-lactam derivatives as potent cholesterol absorption inhibitors” (European Journal of Medicinal Chemistry, 2014).

Molecular target: T1, human NPC1L1 (Homo sapiens, UniProt Q9UHC9)
T1 construct: expressed in transfected cells
T1 sequence (Q9UHC9 22-1359): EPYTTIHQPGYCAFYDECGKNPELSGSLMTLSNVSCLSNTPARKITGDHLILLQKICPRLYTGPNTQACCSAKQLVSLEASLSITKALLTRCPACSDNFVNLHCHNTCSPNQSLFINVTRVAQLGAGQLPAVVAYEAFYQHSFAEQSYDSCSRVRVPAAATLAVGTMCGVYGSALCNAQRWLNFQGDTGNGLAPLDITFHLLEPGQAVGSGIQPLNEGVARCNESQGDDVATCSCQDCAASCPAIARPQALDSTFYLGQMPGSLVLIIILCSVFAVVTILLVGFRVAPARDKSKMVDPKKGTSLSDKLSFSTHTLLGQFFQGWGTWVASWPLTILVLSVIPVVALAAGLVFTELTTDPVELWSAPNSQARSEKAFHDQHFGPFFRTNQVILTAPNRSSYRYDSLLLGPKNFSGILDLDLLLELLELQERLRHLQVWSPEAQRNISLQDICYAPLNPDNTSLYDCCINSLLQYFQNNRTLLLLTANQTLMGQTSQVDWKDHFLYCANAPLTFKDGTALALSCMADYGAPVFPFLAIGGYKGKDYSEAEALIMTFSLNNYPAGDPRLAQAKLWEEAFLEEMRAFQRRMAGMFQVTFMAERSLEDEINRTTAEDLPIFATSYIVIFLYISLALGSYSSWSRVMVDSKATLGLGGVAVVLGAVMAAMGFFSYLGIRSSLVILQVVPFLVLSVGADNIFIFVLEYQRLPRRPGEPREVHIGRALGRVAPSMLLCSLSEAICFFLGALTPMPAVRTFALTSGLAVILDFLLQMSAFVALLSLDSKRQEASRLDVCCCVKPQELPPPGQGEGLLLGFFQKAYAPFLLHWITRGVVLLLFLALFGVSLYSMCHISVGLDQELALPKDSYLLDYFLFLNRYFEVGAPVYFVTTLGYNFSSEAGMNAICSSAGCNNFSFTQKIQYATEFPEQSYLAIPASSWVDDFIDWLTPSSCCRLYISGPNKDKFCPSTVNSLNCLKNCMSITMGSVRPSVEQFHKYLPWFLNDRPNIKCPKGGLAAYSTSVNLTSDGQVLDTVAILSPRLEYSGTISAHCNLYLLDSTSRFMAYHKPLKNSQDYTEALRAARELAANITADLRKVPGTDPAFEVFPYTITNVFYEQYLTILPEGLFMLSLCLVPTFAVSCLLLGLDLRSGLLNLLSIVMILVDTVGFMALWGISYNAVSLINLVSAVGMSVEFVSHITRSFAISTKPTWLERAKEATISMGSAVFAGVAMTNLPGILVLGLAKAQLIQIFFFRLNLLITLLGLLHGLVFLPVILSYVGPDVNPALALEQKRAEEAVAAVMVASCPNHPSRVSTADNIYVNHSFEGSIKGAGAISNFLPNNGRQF
Experiment: In vitro [3H]cholesterol uptake assay in hNPC1L1/MDCKII cells
Format: cell-based
Conditions: 1 h, read-out: IC50, cholesterol uptake inhibition
Procedure: Medium A contained DMEM plus 100 units/mL penicillin and 100 μg/mL streptomycin supplemented with 5% lipoprotein-deficient serum (density > 1.21 g/mL, prepared from FCS by ultracentrifugation). Cholesterol Replenishing Medium (Medium B) was prepared according to the modified method reported by Field et al.. In brief, 0.25 mM oleic acid, 50 μM free cholesterol, 10 μM compactin, 50 μM mevalonate, 5 mM Na-taurocholate (Sigma–Aldrich, Germany), and [^3H]cholesterol (0.18 μCi/mL medium, [1,2–3H(N)] cholesterol, 1 mCi/mL (ARC Inc., USA)) in Medium A were mixed and sonicated. Following the micellar formation, compounds 1, 5, 6, 5/6 (70:30), and 6/5 (85:15) (73 mM stock solution in DMSO) were added to Medium B and vortexed to obtain the final concentrations (10, 30, 60, 90, 120, 150, 200 μM).
MDCKII wildtype and hNPC1L1/MDCKII cells were seeded in 24-well plates at a density of 5 × 10^5 cells/mL medium (500 μL medium/well) in Medium A 24 h before the treatment. Cells were washed once with PBS and incubated in Medium B (500 μL medium/well) containing micelles and tested compounds in indicated concentrations for 1 h. Following the incubation, the medium was removed and cells were washed three times with ice-cold 0.2% free fatty acid-free BSA. Cells were lysed and radioactivity in the lysate (100 μL) was determined by liquid scintillation counting. Protein concentrations of the lysates were determined with the DC Protein Assay (Bio-Rad, USA). The results were calculated as cpm/mg protein and expressed as percentage of inhibition compared to untreated cells. Each concentration was tested in duplicate in three independent experiments.

Compound: O=C1[C@H](NCC(O)c2ccc(F)cc2)[C@@H](c2ccc(O)cc2)N1c1ccc(F)cc1 (stereo partly drawn) [6/5 (85:15), (3R,4R)-3-[(2S/R)-2-(4-fluorophenyl)-2-hydroxyethylamino]-1-(4-fluorophenyl)-4-(4-hydroxyphenyl)azetidin-2-one]
- IC50: 71 µM
